Measurements: patent US7052874B2, “Detection of antibacterial activity in excretory secretory product of adult Trichuris suis” (priority 2000, dated 2006)
Structures can show the parent of a compound that is named as a salt. Where two headings read alike, the source gives them in different places.

Tests used:
[1] = compiled from a drug database at Upjohn; cited from earlier work
[2] = tested on: Campylobacter jejuni; test: Heat stability of antibiotics (boiling, then qualitative broth microdilution assay); format: cell-based; conditions: for inactivation of antibiotic by heat treatment: boiling
Method: A broth microdilution method in 96 well plates was used to obtain qualitative and quantitative measures of antibacterial activity. Qualitatively, 50 μl samples of ESP were added to 50 μl suspensions of Campylobacter jejuni (containing about 5×10^5 cfu, as determined by standard serial dilution and plating) in 96 well plates. Plates were evaluated for growth as indicated by the presence of either turbidity or pellet of bacterial cells in the bottoms of U-shaped wells after 48 hr incubation. […] The size of the drug was also taken into consideration. Additionally, an experiment to assess the heat stability of the antibiotics was performed.

[3] = tested on: Campylobacter jejuni; test: Qualitative broth microdilution assay of ultrafiltration and HPLC fractions; format: cell-based; conditions: C18 reverse phase HPLC, 5–80% ACN gradient
Method: A broth microdilution method in 96 well plates was used to obtain qualitative and quantitative measures of antibacterial activity. Qualitatively, 50 μl samples of ESP were added to 50 μl suspensions of Campylobacter jejuni (containing about 5×10^5 cfu, as determined by standard serial dilution and plating) in 96 well plates. Plates were evaluated for growth as indicated by the presence of either turbidity or pellet of bacterial cells in the bottoms of U-shaped wells after 48 hr incubation.
Ultrafiltration. Ultrafiltration methods were used to nominally size fractionate ESP for an approximate determination of the molecular weight of the antibacterial agent(s). AMICON stirred cells under pressurized nitrogen gas were used to separate ESP into fractions above (retentate) and below (filtrate) 30,000 MW with a Millipore YM30 membrane (Millipore) and fractions above (retentate) and below (filtrate) 10,000 MW with a Millipore YM10 membrane. Prior to bioassay, the concentrated retentate fraction was returned to its original volume in RPMI-1640 media to match the volume of the filtrate so that comparisons of relative activity could be made without distortions due to volume differences. […]
High performance liquid chromatography. […] Absorbance of the eluate was monitored at 214 nm, and fractions were collected manually as peaks were detected. […]

[4] = n-octanol/water partition coefficient (log PC) of antibiotics; format: physicochemical; conditions: in parentheses beside log PC
Method: Consideration of CAP contamination. […] Using the worst-case scenario, the predicted maximum amount of CAP absorbed and how much would be released into the medium if the whipworms dissolved (i.e., released 100%) was estimated. […] It was assumed that the aggregate whipworm volume of these eccentrically shaped nematodes occupied 4% of the incubation well volume (4 whipworms/ml at about 10 μl/whipworm).

Row | SMILES | log PC (n-octanol/water partition coefficient) [1] | Antibacterial activity after boiling [2] | inactivation of antibiotic by heat treatment [2] | antibacterial activity of HPLC fractions [3] | Concentrating factor [4] | Antibacterial activity after boiling ([2]; antibiotics (133 concentration) boiled for 10 minutes)
1 | [H]/N=C(/N)N[C@H]1[C@H](O)[C@@H](O)[C@H](O[C@@H]2O[C@@H](C)[C@](O)(C=O)[C@H]2O[C@@H]2O[C@@H](CO)[C@H](O)[C@@H](O)[C@@H]2NC)[C@@H](N/C(N)=N\[H])[C@@H]1O [Streptomycin sulfate] | −9.53 | + | boiling did not inactivate |  |  | 
2 | O=C(N[C@H](CO)[C@H](O)c1ccc([N+](=O)[O-])cc1)C(Cl)Cl [Chloramphenicol, chloramphenicol] |  | + | not heat-inactivated | one fraction with antibacterial activity |  | 
3 | CC1(C)S[C@@H]2[C@H](NC(=O)Cc3ccccc3)C(=O)N2[C@H]1C(=O)O [Penicillin G] |  |  | inactivated by heat treatment |  | (71×) | −
